# Test results: US20230150920A1, “SALTS AND SOLID FORMS OF 4-BROMO-2,5-DIMETHOXYPHENETHYLAMINE” (priority 2021, published 2023)
# Entries after “also recorded” stand apart in the source; their conditions may differ. Like-named read-outs stand apart in the source and are kept apart here.
# Key:
# [1] = Dynamic vapor sorption/desorption (DVS), hygroscopicity; format: physicochemical; conditions: for Hygroscopicity: grade in words, from DVS; for Water uptake (5-95% RH) %: total; for Water uptake (5-85% RH) %: 5-85% RH part of sorption; for Water uptake (85-95% RH) %: 85-95% RH part of sorption
# Method: The active pharmaceutical ingredient (API), 4-bromo-2,5-dimethoxyphenethylamine hydrochloride, is characterized to evaluate its physical properties. The evaluation is performed by X-ray powder diffraction (XRPD), polarized light microscopy (PLM), differential scanning calorimetry (DSC), thermogravimetry (TG), dynamic vapor sorption/desorption (DVS), and/or solubility testing in organic solvents, water, and mixed solvent systems. XRPD data are used to assess crystallinity. PLM data are used to evaluate crystallinity and particle size/morphology. DSC data are used to evaluate melting point, thermal stability, and crystalline form conversion. TG data are used to evaluate if the API is a solvate or hydrate, and to evaluate thermal stability. DVS data are used to evaluate hygroscopicity of the API and if hydrates can be formed at high relative humidity.
# The form characterized in FIGS. 1 and 2 is designated as Form A herein. […] A sharp endotherm at 238° C. in the DSC thermogram is attributed to melting.
# [2] = Dynamic vapor sorption (DVS) with XRPD of the post-DVS sample; format: physicochemical; conditions: for hygroscopicity based on DVS data / moisture gain by DVS / moisture gain by DVS, equivalent moles of water: 25° C.; for hygroscopicity based on DVS data: 5 to 95% RH; for moisture gain by DVS / moisture gain by DVS, equivalent moles of water: adsorption 5 to 95% RH; for post-DVS XRPD result: XRPD of the post-DVS sample; for DVS desorption weight loss, 95-5% RH: desorption 95-5% RH; for behaviour on desorption / form change by XRPD of post-DVS sample: desorption 95 to 5% RH; for DVS sorption weight gain, 5-95% RH: sorption 5-95% RH; for DVS desorption weight loss, 85-5% RH: desorption 85-5% RH; for DVS desorption weight loss, 95-85% RH: desorption 95-85% RH; for DVS sorption weight gain, 5-85% RH: sorption 5-85% RH; for DVS sorption weight gain, 85-95% RH: sorption 85-95% RH
# Method: Dynamic Vapor Sorption (DVS) analysis was carried out using a TA Instruments Q5000 Dynamic Vapor Sorption analyzer. The instrument was calibrated with standard weights and a sodium bromide standard for humidity. Approximately 10-25 mg of sample was loaded into a metal-coated quartz pan for analysis. The sample was analyzed at 25° C. with a maximum equilibration time of one hour in 10% relative humidity (RH) steps from 5 to 95% RH (adsorption cycle) and from 95 to 5% RH (desorption cycle). The movement from one step to the next occurred either after satisfying the equilibrium criterion of 0.01% weight change or, if the equilibrium criterion was not met, after one hour. The percent weight change values were calculated using Microsoft Excel.
# (§1) The DVS analysis was carried out using a TA Instruments Q5000 Dynamic Vapor Sorption analyzer. 13.5 mg of sample was loaded into a metal-coated quartz pan for analysis. After equilibration to 5% relative humidity (RH), the sample was analyzed at 25° C. in 10% RH steps from 5 to 95% RH (adsorption cycle) and from 95 to 5% RH (desorption cycle). The movement from one step to the next occurred either after satisfying the equilibrium criterion of 0.01% weight change in 5 minutes or, if the equilibrium criterion was not met, after 90 minutes. The percent weight change values are calculated using Microsoft Excel®.
# as §1, with “DVS analyses were” for “DVS analysis was”, “analyzer. Approximately 7-11” for “analyzer. 13.5”, “equilibration at” for “equilibration to”, “values were” for “values are”
# as §1, with “analyzer. Approximately 2” for “analyzer. 13.5”, “equilibration at” for “equilibration to”, “values were” for “values are”
# [3] = Deliquescence at 75% RH at ambient temperature; format: physicochemical
# [4] = Slurry
# Description: The sample was then centrifuged, while still warm, and the mother liquor was decanted. The isolated solids were air-dried and analyzed by XRPD.
# [5] = several days at 75% RH at ambient temperature
Molecule,Hygroscopicity: weight gain ([1]; 5-95% RH),Hygroscopicity [1],Water uptake (5-95% RH) % ([1]; 5-95% RH),hygroscopicity based on DVS data [2],moisture gain by DVS [2],post-DVS XRPD result [2],"DVS desorption weight loss, 95-5% RH [2]",behaviour on desorption / form change by XRPD of post-DVS sample [2],"DVS sorption weight gain, 5-95% RH [2]",deliquescence ([3]; at 75% RH),"deliquescence [3, 5]",Hygroscopicity: weight gain ([1]; <85% RH),Hygroscopicity: weight gain ([1]; >85% RH),"moisture gain by DVS, equivalent moles of water [2]","DVS desorption weight loss, 85-5% RH [2]","DVS desorption weight loss, 95-85% RH [2]",DVS desorption total loss [2],"DVS sorption weight gain, 5-85% RH [2]","DVS sorption weight gain, 85-95% RH [2]",DVS sorption total gain [2],further results
"COc1cc(CCN)c(OC)cc1Br.O=C(O)C(O)C(O)C(=O)O [Tartrate (Form 1), 4-bromo-2,5-dimethoxyphenethylamine (2C-B) tartrate]",5-95% RH: 0.1%,Non-hygroscopic;,0.1%,non-hygroscopic,0.1%,"Crystalline, consistent",95-5% RH: 0.1% loss,Form change does not occur,5-95% RH: 0.1% gain,Did not deliquesce,not observed; also recorded: does not deliquesce,,,,,,,,,,
2C-B glycolate,,Mod. hygroscopic; <85%,3.6%,moderately hygroscopic,3.6%,Consistent with Glycolate,,form change is not apparent by XRPD,,Did not deliquesce,not observed,RH: 0.9%,RH: 2.7% gain,0.7 mol,85-5% RH: 1.1% loss,95-85% RH: 2.6% loss,Total loss: 3.7%,5-85% RH: 0.9% gain,85-95% RH: 2.7% gain,Total gain: 3.6%,"Water uptake (5-85% RH) % [1]: 0.9%; Water uptake (85-95% RH) % [1]: (5-85), 2.7 (85-95) %; moisture gain by DVS above 85% RH ([2]; above 85% RH): 2.7%"
"COc1cc(CCN)c(OC)cc1Br.O=S(=O)(O)c1ccccc1 [Besylate (Form 1), 2C-B besylate]",5-95% RH: 0.7%,Slightly,,slightly hygroscopic,0.7%,Consistent with Besylate (Form 1),95-5% RH: 0.7% loss,does not undergo form conversion,5-95% RH: 0.7% gain,Did not deliquesce,not observed,,,0.2 mol,,,,,,,
"COc1cc(CCN)c(OC)cc1Br.O=C(O)CC(O)(CC(=O)O)C(=O)O [Citrate (Form 2), 2C-B Citrate]",5-95% RH: 0.5%,Slightly,,slightly hygroscopic,0.5%,Consistent with Citrate (Form 2),95-5% RH: 0.5% loss,form change does not occur,5-95% RH: 0.5% gain,Did not deliquesce,not observed,,,0.1 mol,,,,,,,
"COc1cc(CCN)c(OC)cc1Br.O=C(O)C(O)C(O)C(=O)O [2C-B tartrate, 4-bromo-2,5-dimethoxyphenethylamine (2C-B) tartrate]",,,,,,,,,,,,,,,,,,,,,"XRPD result after slurry ([4]; ACN, 50° C., 9 days): Tartrate (Form 1); XRPD result after slurry ([4]; DMF/acetone 50/50, RT): Tartrate (Form 1); XRPD result after slurry ([4]; EtOAc, 50° C., 9 days): Tartrate (Form 1); XRPD result after slurry ([4]; EtOAc/DMSO 71/29, RT): Tartrate (Form 1) +; XRPD result after slurry ([4]; EtOH, 50° C., 9 days): Tartrate (Form 1); XRPD result after slurry ([4]; EtOH/H2O 50/50, aw = 0.89, RT): Tartrate (Form 1); XRPD result after slurry ([4]; EtOH/H2O 80/20, aw = 0.70, RT): Tartrate (Form 1); XRPD result after slurry ([4]; EtOH/H2O 90/10, aw = 0.49, RT): Tartrate (Form 1); XRPD result after slurry ([4]; IPA, 50° C., 9 days): Tartrate (Form 1); XRPD result after slurry ([4]; IPA/H2O 70/30, aw = 0.94, RT): Tartrate (Form 1); XRPD result after slurry ([4]; MEK, 50° C., 9 days): Tartrate (Form 1); XRPD result after slurry ([4]; MeOH, RT): Tartrate (Form 1); XRPD result after slurry ([4]; MeOH/H2O 95/5, aw = 0.16, RT): Tartrate (Form 1); XRPD result after slurry ([4]; THF/H2O 50/50, aw = 1.00, 5° C.): Tartrate (Form 1); XRPD result after slurry ([4]; acetone/H2O 50/50, aw = 0.91, 5° C.): Tartrate (Form 1)"
"COc1cc(CCN)c(OC)cc1Br.O=S(=O)(O)O [Sulfate, 2C-B sulfate]",,Slightly,2.2%,slightly hygroscopic,2.2%,Consistent with Sulfate,,form change does not occur,,Did not deliquesce,not observed,RH: 0.8%,RH: 1.4%,approximately 0.5 moles,85-5% RH: 0.8% loss,95-85% RH: 1.3% loss,Total loss: 2.1%,5-85% RH: 0.8% gain,85-95% RH: 1.4% gain,Total gain: 2.2%,"Water uptake (5-85% RH) % [1]: 0.8%; Water uptake (85-95% RH) % [1]: (5-85), 1.4 (85-95) %"
"COc1cc(CCN)c(OC)cc1Br.O=C(O)c1cc(O)ccc1O [Gentisate, 2C-B gentisate]",5-95% RH: 0.2%,Non-hygroscopic;,0.20%,non-hygroscopic,0.2%,"Crystalline, consistent",95-5% RH: 0.2% loss,form change does not occur,5-95% RH: 0.2% gain,Did not deliquesce,not observed; also recorded: does not deliquesce,,,0.05 mol,,,,,,,
"COc1cc(CCN)c(OC)cc1Br.CS(=O)(=O)O [Mesylate, 2C-B mesylate]",,Hygroscopic; <85%,,hygroscopic,7.2%,Consistent with Mesylate,,form change is not apparent by XRPD,,Did not deliquesce,not observed,RH: 2.7%,RH: 4.5% gain,approximately 1.5 moles,85-5% RH: 3.0% loss,95-85% RH: 4.4% loss,Total loss: 7.4%,5-85% RH: 2.7% gain,85-95% RH: 4.5% gain,Total gain: 7.2%,
